Type in all cases: binding
The target in test [1] is T1, PCSK9 (Homo sapiens, UniProt Q8NBP7).
T1 construct: biotin (biotinylated); purchased
Kind of test: PCSK9 Alexa FRET Standard TR-FRET assay. An outline of the steps:
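TR-FRET displacement with final 0.5 nM biotinylated PCSK9, 1.25 nM streptavidin-Eu and 20 nM AlexaFluor cyclic peptide in 50 mM HEPES pH 7.4, 0.15 M NaCl, 5 mM CaCl2, 0.01% BSA, 0.01% P20; ≥2 h at room temperature. IC50 by sigmoidal fit, converted to Ki (nM) using tracer KD.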
(In general: TR-FRET usually uses a lanthanide donor and a delayed reading to cut background.)

The target in test [2] is T1, PCSK9. Kind of test: PCSK9 Alexa FRET Plus TR-FRET assay. In short, it runs like this: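 TR-FRET competition between europium-labeled PCSK9 and AlexaFluor-tagged cyclic peptide (prepared at 1920 nM stock), incubated at least 2 h at room temperature. IC50 from sigmoidal nonlinear fit converted to Ki using the peptide KD; falling europium counts flag false-positive inhibition; values reported in nM.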

For test [3], the target named is T1, PCSK9. Kind of test: PCSK9 Alexa FRET Ultra TR-FRET assay. An outline of the steps:
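Competition of compounds with AlexaFluor-tagged cyclic peptide (1920 nM solution, not final) for europium-labeled PCSK9, read by TR-FRET after at least 2 h at room temperature. IC50 from sigmoidal fit, converted to Ki (nM) using peptide KD; falling europium counts flag false positives.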

[4] abbreviates: Ki calculated from IC50 and KD of AF cyclic peptide Reagent A, 0.5 nM PCSK9, 20 nM AF cyclic peptide, read-out: Alexa FRET Stdt TR-FRET.
[5] abbreviates: Ki calculated from IC50 and KD of AF cyclic peptide Reagent B, 0.5 nM PCSK9, 960 nM AF cyclic peptide, read-out: Alexa FRET Plus TR-FRET.
[6] abbreviates: Ki Ultra, calculated from IC50 and KD of AF cyclic peptide, 0.5 nM PCSK9, 960 nM AF cyclic peptide, read-out: Alexa FRET Ultra TR-FRET.

T1 sequence (Q8NBP7 153-692): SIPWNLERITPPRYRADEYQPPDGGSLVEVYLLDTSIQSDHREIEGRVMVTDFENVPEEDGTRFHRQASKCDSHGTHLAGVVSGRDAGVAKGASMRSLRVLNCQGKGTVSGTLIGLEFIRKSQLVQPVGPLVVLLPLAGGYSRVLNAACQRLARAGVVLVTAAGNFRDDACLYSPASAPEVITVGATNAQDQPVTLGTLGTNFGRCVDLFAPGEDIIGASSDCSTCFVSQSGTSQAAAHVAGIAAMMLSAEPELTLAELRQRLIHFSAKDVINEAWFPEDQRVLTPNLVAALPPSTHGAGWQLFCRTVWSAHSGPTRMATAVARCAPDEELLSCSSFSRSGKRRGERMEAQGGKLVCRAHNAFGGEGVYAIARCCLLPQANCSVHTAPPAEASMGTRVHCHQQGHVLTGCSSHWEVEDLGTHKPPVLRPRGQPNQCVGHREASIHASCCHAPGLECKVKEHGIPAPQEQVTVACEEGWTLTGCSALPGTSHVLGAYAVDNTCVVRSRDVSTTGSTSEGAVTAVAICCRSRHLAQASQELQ

As to `COc1ccc(C[C@@H]2NC(=O)[C@H]([C@@H](C)O)NC(=O)[C@@H]3[C@@H]4CCN3C(=O)[C@@H]3Cc5cn(c6ccc(F)cc56)CCCCCCN(Cc5ccc(cc5)CCNC(=O)[C@]5(C)CCCN5C2=O)C(=O)CCC(=O)N[C@@H](C)C(=O)N[C@H](CNC(=O)COCCOCCNC(=O)COCCOCCNC(=O)CCCCC[N+](C)(C)CCNC(=O)CC[C@H](NC(=O)CCCCCCCCCCCCCCCCC(=O)O)C(=O)O)C(=O)N[C@@H](Cc2cccc(c2)CNC(=O)CO4)C(=O)N3)cc1` [compound 30], the Ki at PCSK9 [1] (setting [4]) was less than 1.26 nM; at PCSK9 [2] (setting [5]), less than 6 pM; at PCSK9 [3] (setting [6]) it was 4 pM.
For `COc1ccc(C[C@@H]2NC(=O)[C@H]([C@@H](C)O)NC(=O)[C@@H]3[C@@H]4CCN3C(=O)[C@@H]3Cc5cn(c6ccc(F)cc56)CCCCCCN(Cc5ccc(cc5)CCNC(=O)[C@]5(C)CCCN5C2=O)C(=O)CCC(=O)N[C@@H](C)C(=O)N[C@H](CNC(=O)CC[C@H](NC(=O)CCCCC[N+](C)(C)CCNC(=O)COCCOCCNC(=O)COCCOCCNC(=O)CC[C@H](NC(=O)CCCCCCCCCCCCCCCCC(=O)O)C(=O)O)C(=O)O)C(=O)N[C@@H](Cc2cccc(c2)CNC(=O)CO4)C(=O)N3)cc1` [compound 33], in that order: less than 1.26 nM, 14 pM and 16 pM.
Regarding `COc1ccc(C[C@@H]2NC(=O)[C@H]([C@@H](C)O)NC(=O)[C@@H]3[C@@H]4CCN3C(=O)[C@@H]3Cc5cn(c6ccc(F)cc56)CCCCCCN(Cc5ccc(cc5)CCNC(=O)[C@]5(C)CCCN5C2=O)C(=O)CCC(=O)N[C@@H](C)C(=O)N[C@H](CNC(=O)COCCOCCNC(=O)CC[C@H](NC(=O)CCOCCOCC[N+](C)(C)CCNC(=O)COCCOCCNC(=O)COCCOCCNC(=O)CC[C@H](NC(=O)CCCCCCCCCCCCCCCCC(=O)O)C(=O)O)C(=O)O)C(=O)N[C@@H](Cc2cccc(c2)CNC(=O)CO4)C(=O)N3)cc1` [Ex-53], the Ki at PCSK9 [1] (setting [4]) was less than 1.26 nM; on PCSK9 [2], 10 pM; at PCSK9 [3], 14 pM.
For `COc1ccc(C[C@@H]2NC(=O)[C@H]([C@@H](C)O)NC(=O)[C@@H]3[C@@H]4CCN3C(=O)[C@@H]3Cc5cn(c6ccc(F)cc56)CCCCCCN(Cc5ccc(cc5)CCNC(=O)[C@]5(C)CCCN5C2=O)C(=O)CCC(=O)N[C@@H](C)C(=O)N[C@H](CNC(=O)COCCOCCNC(=O)CCOCCOCC[N+](C)(C)CCNC(=O)COCCOCCNC(=O)COCCOCCNC(=O)CC[C@H](NC(=O)CCCCCCCCCCCCCCCCC(=O)O)C(=O)O)C(=O)N[C@@H](Cc2cccc(c2)CNC(=O)CO4)C(=O)N3)cc1` [compound 32], the Ki at PCSK9 [1] (setting [4]) is less than 1.26 nM; on PCSK9 [2] (setting [5]) it was 9 pM; at PCSK9 [3] (setting [6]), 11 pM.
Regarding `COc1ccc(C[C@@H]2NC(=O)[C@H]([C@@H](C)O)NC(=O)[C@@H]3[C@@H]4CCN3C(=O)[C@@H]3Cc5cn(c6ccc(F)cc56)CCCCCCN(Cc5ccc(cc5)CCNC(=O)[C@]5(C)CCCN5C2=O)C(=O)CCC(=O)N[C@@H](C)C(=O)N[C@H](CNC(=O)CCOCCOCC[N+](C)(C)CCNC(=O)COCCOCCNC(=O)COCCOCCNC(=O)CC[C@@H](NC(=O)CC[C@@H](NC(=O)CCCCCCCCCCCCCCCCC(=O)O)C(=O)O)C(=O)O)C(=O)N[C@@H](Cc2cccc(c2)CNC(=O)CO4)C(=O)N3)cc1` [Ex-49], the Ki on PCSK9 [1] was less than 1.26 nM; on PCSK9 [2] (setting [5]), less than 6 pM; on PCSK9 [3] (setting [6]) it was 3 pM.
With `COc1ccc(C[C@@H]2NC(=O)[C@H]([C@@H](C)O)NC(=O)[C@@H]3[C@@H]4CCN3C(=O)[C@@H]3Cc5cn(c6ccc(F)cc56)CCCCCCN(Cc5ccc(cc5)CCNC(=O)[C@]5(C)CCCN5C2=O)C(=O)CCC(=O)N[C@@H](C)C(=O)N[C@H](CNC(=O)COCCOCCNC(=O)COCCOCCNC(=O)CCOCCOCC[N+](C)(C)CCNC(=O)CCCCCCCCCCCCCCC(=O)O)C(=O)N[C@@H](Cc2cccc(c2)CNC(=O)CO4)C(=O)N3)cc1` [Ex-39], the Ki at PCSK9 [1] (setting [4]) was less than 1.26 nM; on PCSK9 [2] (setting [5]), less than 6 pM; on PCSK9 [3] (setting [6]) it was 3 pM.
As for `COc1ccc(C[C@@H]2NC(=O)[C@H]([C@@H](C)O)NC(=O)[C@@H]3[C@@H]4CCN3C(=O)[C@@H]3Cc5cn(c6ccc(F)cc56)CCCCCCN(Cc5ccc(cc5)CCNC(=O)[C@]5(C)CCCN5C2=O)C(=O)CCC(=O)N[C@@H](C)C(=O)N[C@H](CNC(=O)CCOCCOCC[N+](C)(C)CCNC(=O)COCCOCCNC(=O)COCCOCCNC(=O)CC[C@H](NC(=O)CC[C@H](NC(=O)CCCCCCCCCCCCCCCCC(=O)O)C(=O)O)C(=O)O)C(=O)N[C@@H](Cc2cccc(c2)CNC(=O)CO4)C(=O)N3)cc1` [Ex-10], the Ki at PCSK9 [1] (setting [4]) is less than 1.26 nM; on PCSK9 [2], 8 pM; on PCSK9 [3] it was 6 pM.
Consider `COC(=O)CCCCCCCCCCCCCCCCC(=O)N[C@@H](CCC(=O)NCCOCCOCC(=O)NCCOCCOCC(=O)NCC[N+](C)(C)CCCCCC(=O)NC[C@H]1NC(=O)[C@H](C)NC(=O)CCC(=O)N2CCCCCCn3cc(c4cc(F)ccc43)C[C@@H]3NC(=O)[C@H](Cc4cccc(c4)CNC(=O)CO[C@H]4CCN(C3=O)[C@@H]4C(=O)N[C@@H]([C@@H](C)O)C(=O)N[C@@H](Cc3ccc(OC)cc3)C(=O)N3CCC[C@@]3(C)C(=O)NCCc3ccc(cc3)C2)NC1=O)C(=O)OC` [Ex-12], for which the Ki on PCSK9 [1] (setting [4]) was less than 1.26 nM; on PCSK9 [2] (setting [5]), 14 pM; at PCSK9 [3] (setting [6]) it was 7 pM.
For `COc1ccc(C[C@@H]2NC(=O)[C@H]([C@@H](C)O)NC(=O)[C@@H]3[C@@H]4CCN3C(=O)[C@@H]3Cc5cn(c6ccc(F)cc56)C/C=C/CCCN(Cc5ccc(cc5)CCNC(=O)[C@]5(C)CCCN5C2=O)C(=O)CCC(=O)N[C@@H](C)C(=O)N[C@H](CNC(=O)CCOCCOCC[N+](C)(C)CCNC(=O)COCCOCCNC(=O)COCCOCCNC(=O)CC[C@H](NC(=O)CC[C@H](NC(=O)CCCCCCCCCCCCCCCCC(=O)O)C(=O)O)C(=O)O)C(=O)N[C@@H](Cc2cccc(c2)CNC(=O)CO4)C(=O)N3)cc1` [Ex-44], in that order: less than 1.26 nM, less than 6 pM and 3 pM.
Consider `COc1ccc(C[C@@H]2NC(=O)[C@H]([C@@H](C)O)NC(=O)[C@@H]3[C@@H]4CCN3C(=O)[C@@H]3Cc5cn(c6ccc(F)cc56)CCCCCCN(Cc5ccc(cc5)CCNC(=O)[C@]5(C)CCCN5C2=O)C(=O)CCC(=O)N[C@@H](C)C(=O)N[C@H](CNC(=O)CCOCCOCC[N+](C)(C)CCNC(=O)CC[C@H](NC(=O)CCCCCCCCCCCCCCCCC(=O)O)C(=O)O)C(=O)N[C@@H](Cc2cccc(c2)CNC(=O)CO4)C(=O)N3)cc1` [Ex-7], for which the values for the Ki at PCSK9 [1] (setting [4]), at PCSK9 [2] and on PCSK9 [3] were less than 1.26 nM, 8 pM and 13 pM, respectively.
As for `COc1ccc(C[C@@H]2NC(=O)[C@H]([C@@H](C)O)NC(=O)[C@@H]3[C@@H]4CCN3C(=O)[C@@H]3Cc5cn(c6ccc(F)cc56)CCCCCCN(Cc5ccc(cc5)CCNC(=O)[C@]5(C)CCCN5C2=O)C(=O)CCC(=O)N[C@@H](C)C(=O)N[C@H](CNC(=O)CCOCCOCCNC(=O)CCCCCCCCCCCCCCCCC(=O)O)C(=O)N[C@@H](Cc2cccc(c2)CNC(=O)CO4)C(=O)N3)cc1` [Ex-24], the values for the Ki at PCSK9 [1] (setting [4]), at PCSK9 [2] (setting [5]) and on PCSK9 [3] (setting [6]) were less than 1.26 nM, 9 pM and 18 pM, respectively.
`COc1ccc(C[C@@H]2NC(=O)[C@H]([C@@H](C)O)NC(=O)[C@@H]3[C@@H]4CCN3C(=O)[C@@H]3Cc5cn(c6ccc(F)cc56)CCCCCCN(Cc5ccc(cc5)CCNC(=O)[C@]5(C)CCCN5C2=O)C(=O)CCC(=O)N[C@@H](C)C(=O)N[C@H](CNC(=O)COCCOCCNC(=O)COCCOCCNC(=O)CC[C@H](NC(=O)CC[C@H](NC(=O)CCOCCOCC[N+](C)(C)CCNC(=O)CCCCCCCCCCCCCCCCC(=O)O)C(=O)O)C(=O)O)C(=O)N[C@@H](Cc2cccc(c2)CNC(=O)CO4)C(=O)N3)cc1` [Ex-9]: the Ki at PCSK9 [1] (setting [4]) is less than 1.26 nM; at PCSK9 [2], less than 6 pM; on PCSK9 [3], 7 pM.
On to `COc1ccc(C[C@@H]2NC(=O)[C@H]([C@@H](C)O)NC(=O)[C@@H]3[C@@H]4CCN3C(=O)[C@@H]3Cc5cn(c6ccc(F)cc56)CCCCCCN(Cc5ccc(cc5)CCNC(=O)[C@]5(C)CCCN5C2=O)C(=O)CCC(=O)N[C@@H](C)C(=O)N[C@H](CNC(=O)COCCOCC[N+](C)(C)CCOCCNC(=O)COCCOCCNC(=O)COCCOCCNC(=O)CC[C@H](NC(=O)CCCCCCCCCCCCCCCCC(=O)O)C(=O)O)C(=O)N[C@@H](Cc2cccc(c2)CNC(=O)CO4)C(=O)N3)cc1` [Ex-31], for which the Ki on PCSK9 [1] (setting [4]) was less than 1.26 nM; on PCSK9 [2] (setting [5]), less than 6 pM; at PCSK9 [3] (setting [6]), 6 pM.
Turning to `COc1ccc(C[C@@H]2NC(=O)[C@H]([C@@H](C)O)NC(=O)[C@@H]3[C@@H]4CCN3C(=O)[C@@H]3Cc5cn(c6ccc(F)cc56)CCCCCCN(Cc5ccc(cc5)CCNC(=O)[C@]5(C)CCCN5C2=O)C(=O)CCC(=O)N[C@@H](C)C(=O)N[C@H](CNC(=O)COCCOCC[N+](C)(C)CCNC(=O)COCCOCCNC(=O)COCCOCCNC(=O)CC[C@H](NC(=O)CCCCCCCCOCCCCCCCCC(=O)O)C(=O)O)C(=O)N[C@@H](Cc2cccc(c2)CNC(=O)CO4)C(=O)N3)cc1` [Ex-50], the Ki was less than 1.26 nM on PCSK9 [1] (setting [4]), less than 6 pM on PCSK9 [2] and 5 pM at PCSK9 [3].

The values are drawn from US12178842B2, “PCSK9 antagonist compounds” (MERCK SHARP & DOHME LLC, priority 2019, dated 2024).
